SMILES strings stand for the structures. Residue numbers refer to the chain shown, from its start.

The target in one experiment is T1, E894K-AR (Homo sapiens, UniProt P10275, E894K).
T1 sequence (P10275 1-920 E894K): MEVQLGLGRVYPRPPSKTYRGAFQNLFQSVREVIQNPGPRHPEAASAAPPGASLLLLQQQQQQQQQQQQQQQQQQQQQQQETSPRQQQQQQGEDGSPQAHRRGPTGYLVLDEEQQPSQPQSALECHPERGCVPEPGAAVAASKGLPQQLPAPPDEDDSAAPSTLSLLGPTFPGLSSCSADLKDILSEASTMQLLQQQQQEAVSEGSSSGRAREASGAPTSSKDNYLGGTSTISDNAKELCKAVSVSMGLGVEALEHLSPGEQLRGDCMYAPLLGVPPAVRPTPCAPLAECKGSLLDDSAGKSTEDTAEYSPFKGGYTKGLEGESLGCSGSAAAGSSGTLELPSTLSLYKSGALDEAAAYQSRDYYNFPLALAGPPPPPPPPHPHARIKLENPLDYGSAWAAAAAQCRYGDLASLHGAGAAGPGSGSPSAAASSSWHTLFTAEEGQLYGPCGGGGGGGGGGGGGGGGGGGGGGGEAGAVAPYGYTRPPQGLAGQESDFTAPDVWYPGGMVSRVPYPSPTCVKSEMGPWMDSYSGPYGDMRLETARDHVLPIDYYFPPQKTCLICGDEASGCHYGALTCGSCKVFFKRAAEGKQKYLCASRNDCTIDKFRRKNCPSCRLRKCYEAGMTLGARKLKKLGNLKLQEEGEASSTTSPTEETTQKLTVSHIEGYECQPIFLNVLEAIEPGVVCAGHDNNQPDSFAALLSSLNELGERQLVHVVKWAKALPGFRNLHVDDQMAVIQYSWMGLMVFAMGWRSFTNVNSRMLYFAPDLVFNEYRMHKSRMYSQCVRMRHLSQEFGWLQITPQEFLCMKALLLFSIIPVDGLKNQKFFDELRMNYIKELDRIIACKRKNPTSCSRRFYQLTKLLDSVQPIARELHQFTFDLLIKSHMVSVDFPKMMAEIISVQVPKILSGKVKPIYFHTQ
Format: cell-based. The settings on record: AR mutant E894K; transfected PC3 cells; 0.1 nM R1881; drug 0 to 50 μM.

A further experiment concerns the target T2, H875Q-AR (Homo sapiens, UniProt P10275, H875Q).
T2 sequence (P10275 1-920 H875Q): T1 sequence (P10275 1-920 E894K) with H875Q, K894E
In words: cell-based.

In the case of `CC(C)(O)C(=O)Nc1ccc([N+](=O)[O-])c(C(F)(F)F)c1` [Hydroxyflutamide, hydroxyflutamide], at E894K-AR, the “Agonist response to treatment” value is given as “Partial”.
Turning to `C[C@]12CCC(=O)C=C1CC[C@@H]1[C@@H]2[C@@H](O)C[C@@]2(C)[C@H]1CC[C@]2(O)C(=O)CO` [hydrocortisone], the EC50 on H875Q-AR is above 0.5 µM.

The EC50 is the concentration at which the effect is half-maximal.

The values above are taken from article PMC4729137, “Functional analysis of androgen receptor mutations that confer anti-androgen resistance identified in circulating cell-free DNA from prostate cancer patients” (Genome Biology, 2016).
